The record followed here is patent US11390661B2, “HCMV entry inhibitors” (priority 2016, dated 2022).

Experiment [1] deals with TB40-BACKL7-UL32EGFP-UL100mCherry. Briefly: Adsorption and penetration of dual fluorescent HCMV particles on HECs. As to conditions: 100 ng/ml. It is filed as cell-based, Human cytomegalovirus. As for the experimental part: To distinguish between adsorption and penetration of viral particles the inventors made use of dual fluorescent HCMV TB40-BACKL7-UL32EGFP-UL100mCherry (Sampaio 2013). HFFs and HECs were seeded at a density of 40,000 cells per well on gelatin-coated MIDI plates. Overnight produced cell-free infectious supernatant of the fluorescent virus was pre-incubated with PDGFR-Fcs for 2 h at 37° C. Before addition of the mixture the cells were pre-incubated with MEM for 30 min. […] After fixation with acetone, the EGFP signal of pUL32-EGFP was enhanced using mouse-anti-GFP (clone 3E6, Invitrogen) and Alexa488-anti-mouse (Life Technologies). DAPI (4′,6-diamidino-2-phenylindole) was added to mark the cell nuclei. The number of mCherry and EGFP positive particles which are enveloped was compared to the number of particles which were only green per cell. These […] particles have lost their UL100mCherry containing envelope, presumably by fusion with cellular membranes.
To further investigate, which of the initial steps of infection are blocked, the inventors performed a series of experiments that allowed discriminating between adsorption and penetration. They used the dual fluorescent virus TB40-BACKL7-UL32EGFP-UL100mCherry (Sampaio 2013) as it allows to discriminate between enveloped (EGFP-positive and mCherry positive) and non-enveloped particles (only EGFP positive). […]

Experiment [2] deals with HSV-1 strain F. The experiment in a line: Inhibition of HSV infection (specificity control). It is filed as cell-based. Conditions: data not shown. Here is the method:
Infection efficiencies were determined by immunofluorescence staining for viral proteins. For fixation and permeabilization the cells were incubated with 80% acetone for 5 min. For HCMV infected cells the immediate early proteins pUL122/123 were detected with a mouse monoclonal (clone E13, Argene) and visualized using a Cy3 conjugated goat anti-mouse secondary antibody (Jackson Immuno Research). HSV infected cultures were stained 6 h post infection for ICP0 using a mouse monoclonal (clone 11060, Santa Cruz) and goat anti-mouse AF488 (life technologies). DAPI was used to locate nuclei. Infection rates were determined by counting the number of cell nuclei positive for the respective viral protein, as well as the total number of nuclei per image. For each condition three images were evaluated.

On to “PDGFR-alpha-Fc: recombinant Fc-fusion protein of the PDGFR-alpha extracellular domain, obtained from R&D (6765-PR-050)”, for which, in experiment [1], the “effect on penetration of HECs” value is reported as “affected only in fibroblasts” and the “reduction of adsorption on HECs” value is given as 75%. In addition, the “effect on HSV infection” value in experiment [2] is “not affected”.
